Here are results for 1 compound from patent US4371464A, “Dipeptide sweetener” (Stamicarbon, B.V., priority 1980, dated 1983).

The assay can be described thus: organoleptic research (sweetness compared with sucrose). To be noted: reference sucrose.

Take `COC(=O)[C@@H](NC(=O)[C@H](CC(=O)O)NC(=O)NC=O)c1ccccc1` [II, N-(N'-formyl)-carbamyl-L-alpha-aspartyl-L-phenylglycinemethylester]: the “sweetness relative to sucrose” value is 200 times sweeter than sucrose.
